{"source": "patent US9261498B2", "about": "“Biomarker for sensitivity to mTOR inhibitor therapy in kidney cancer” (The Regents of the University of California, priority 2005, dated 2016)", "key": {"[1]": {"tested_on": "SN12C-VHL shRNA cells", "experiment": "In vitro growth (cell counts), VHL knockdown cells", "type": "cell-based, human", "method": "(§1) FIGS. 1A-1E. Effects of VHL knockdown on sensitivity to CCI-779. (a) Immunoblotting of lysates derived from shRNA and control (empty vector, V) in SN12C, using antibodies against VHL (both isoforms detected), HIF-1α, HIF-2α, GLUT-1, CA-IX and β-Actin (as a loading control). (b) SN12C-CSCG and SN12C-VHLshRNA cells (1×10^5) were cultured in 10% serum rich media, in the presence of vehicle, 1 or 10 nM of CCI-779 for 5 days. Cell growth was measured by cell counts (n=3). […] (c) SN12C-CSCG (C1) and SN12C-CSCG shVHL RNA (C2) cells were injected into SCID mice at a dose of 1×10^6 cells per mouse (n=30). When tumor volume reached 150 mm^3, mice were randomized to daily treatment with vehicle or 0.1 mg/kg of CCI-779. The change in tumor volume is plotted. Phosphorylated-S6 protein in SN12C-CSCG and SN12C-VHL shRNA xenograft tumors treated with vehicle or 0.1 mg/kg of CCI-779 was measured by immunoblot C3 and C4). Equal loading verified by actin immunoblots. […] (e) Schematic of shRNA-expressing lentivirus directed against VHL in pCSCG vector.\n(§2) For in vitro experiments, cells (5×10^4) were plated and treated with 1 and 10 nM CCI-779 (kind gift of J. Gibbons, Wyeth) or vehicle (ethanol). On day 5-post treatment, cells were trypsinized, resuspended in DMEM with 10% FBS and counted using the VI CELL counter (Beckman Coulter), according to the manufacturer's instructions. Cell counts were done in triplicate and repeated on at least 3 independent occasions. In vivo tumorigenicity was measured by injection of 5×10^5 SN12C-CSCG, ACHN-CSCG, SN12C-CSCG-VHLshRNAi, ACHN-CSCG-VHLshRNAi, SN12C-CSCG-VHLshRNAi-pBABE, SN12C-CSCG-VHLshRNAi-pBABE-HA-HIF-2α (P405A; P531A) cells in 100 μl of Matrigel (Collaborative Biomedical) subcutaneously into the flanks of SCID mice. Tumor size were measured weekly in three dimensions using calipers as described (Klein, K. A. et al. Nat Med 3, 402-8 (1997)). When tumors reached 200 mm^3, all tumors received 0.1 mg/kg/daily of CCI-779 or vehicle. All mouse experiments were performed in compliance with the guidelines of the Animal Research Committee of the University of California at Los Angeles.\n(§3) SN12C and ACHN (NCI60, DTP) were maintained in Dulbecco's modified Eagle's Medium (DMEM) supplemented with 10% FBS. […] On day 5-post treatment, cells were trypsinized, resuspended in DMEM with 10% FBS and counted using the VI-Cell XR automated cell viability analyzer (Beckmann Coulter). […] In vivo tumorigenicity was measured by injection of 5×10^5 SN12C-CSCG, ACHN-CSCG, SN12C-CSCG-VHL shRNA, ACHN-CSCG-VHL shRNA, SN12C-CSCG-VHL shRNA-pBABE, SN12C-CSCG-VHL shRNA-pBABE-HA-HIF-2α (P405A; P531A) cells in 100 μl of Matrigel (Collaborative Biomedical) subcutaneously into the flanks of SCID mice. Tumor size were measured weekly in three dimensions using calipers as described. […]"}, "[2]": {"tested_on": "ACHN-VHL shRNA cells", "experiment": "In vitro growth (cell counts), VHL knockdown cells", "type": "cell-based, human", "method": "as §1, §2, §3"}, "[3]": {"details": "dose-dependent, 1 and 10 nM CCI-779, day 5"}}, "data": [{"smiles": "CO[C@H]1C[C@@H]2CC[C@@H](C)[C@@](O)(O2)C(=O)C(=O)N2CCCC[C@H]2C(=O)O[C@H]([C@H](C)C[C@@H]2CC[C@@H](OC(=O)C(C)(CO)CO)[C@H](OC)C2)CC(=O)[C@H](C)/C=C(\\C)[C@@H](O)[C@@H](OC)C(=O)[C@H](C)C[C@H](C)/C=C/C=C/C=C/1C", "note": "[CCI-779]", "values": [{"measurement": "sensitivity to CCI-779 in contrast to the parental cells", "setting": "[1]; 1 and 10 nM, in vitro", "result": "increased sensitivity"}, {"measurement": "reduction of cell growth", "setting": "[1]; [3]", "result": 70, "unit": "%"}, {"measurement": "sensitivity to CCI-779 after stable VHL knockdown", "setting": "[2]; FIG. 1D", "result": "enhanced sensitivity"}, {"measurement": "reduction of cell growth", "setting": "[2]; [3]", "result": 70, "unit": "%"}]}]}
